What was measured:
[1] = mn = molality of the nth substance listed, in mol/kg; details: 100 kPa, Liquid; for viscosity: Falling or rolling sphere viscometry; for mass density: Vibrating tube method
[2] = 100 kPa, Liquid, Falling or rolling sphere viscometry

O=C(O[C@@H]1Cc2c(O)cc(O)cc2O[C@@H]1c1cc(O)c(O)c(O)c1)c1cc(O)c(O)c(O)c1 + O
[1]
Details | mass density, 288.15 K [kg/m3] | mass density, 293.15 K [kg/m3] | mass density, 298.15 K [kg/m3] | mass density, 303.15 K [kg/m3] | mass density, 308.15 K [kg/m3] | viscosity, 288.15 K [mPa·s] | viscosity, 293.15 K [mPa·s] | viscosity, 298.15 K [mPa·s] | viscosity, 303.15 K [mPa·s] | viscosity, 308.15 K [mPa·s]
m1 = 0.0099 | 1000.71 | 999.804 | 998.637 | 997.228 | 995.598 | 1.148 | 1.014 | 0.906 | 0.815 | 0.739
m1 = 0.02 | 1002.36 | 1001.44 | 1000.26 | 998.831 | 997.195 | 1.158 | 1.021 | 0.911 | 0.82 | 0.744
m1 = 0.0298 | 1003.97 | 1003.04 | 1001.83 | 1000.39 | 998.752 | 1.171 | 1.034 | 0.92 | 0.827 | 0.75
m1 = 0.0399 | 1005.63 | 1004.68 | 1003.47 | 1002.01 | 1000.36 | 1.187 | 1.049 | 0.934 | 0.838 | 0.759
m1 = 0.0499 | 1007.26 | 1006.29 | 1005.05 | 1003.6 | 1001.92 | 1.203 | 1.062 | 0.945 | 0.849 | 0.769
m1 = 0.0601 | 1008.94 | 1007.93 | 1006.69 | 1005.22 | 1003.53 | 1.222 | 1.079 | 0.959 | 0.86 | 0.778

[Cl-].[Li+] [lithium chloride] + O
[1]
Details | mass density, 288.15 K [kg/m3] | mass density, 293.15 K [kg/m3] | mass density, 298.15 K [kg/m3] | mass density, 303.15 K [kg/m3] | mass density, 308.15 K [kg/m3] | viscosity, 288.15 K [mPa·s] | viscosity, 293.15 K [mPa·s] | viscosity, 298.15 K [mPa·s] | viscosity, 303.15 K [mPa·s] | viscosity, 308.15 K [mPa·s]
m1 = 0.1 | 1001.51 | 1000.58 | 999.41 | 998.003 | 996.382 | 1.146 | 1.011 | 0.898 | 0.809 | 0.735
m1 = 0.2 | 1004 | 1003.06 | 1001.87 | 1000.45 | 998.848 | 1.154 | 1.019 | 0.909 | 0.818 | 0.743
m1 = 0.3 | 1006.34 | 1005.37 | 1004.17 | 1002.75 | 1001.13 | 1.169 | 1.033 | 0.921 | 0.83 | 0.753
m1 = 0.4 | 1008.37 | 1007.4 | 1006.19 | 1004.76 | 1003.15 | 1.183 | 1.045 | 0.932 | 0.84 | 0.762
m1 = 0.5 | 1011.06 | 1010.07 | 1008.81 | 1007.35 | 1005.79 | 1.201 | 1.061 | 0.948 | 0.853 | 0.774

[Cl-].[K+] [potassium chloride] + O
[1]
Details | mass density, 288.15 K [kg/m3] | mass density, 293.15 K [kg/m3] | mass density, 298.15 K [kg/m3] | mass density, 303.15 K [kg/m3] | mass density, 308.15 K [kg/m3] | viscosity, 288.15 K [mPa·s] | viscosity, 293.15 K [mPa·s] | viscosity, 298.15 K [mPa·s] | viscosity, 303.15 K [mPa·s] | viscosity, 308.15 K [mPa·s]
m1 = 0.1 | 1003.85 | 1002.92 | 1001.71 | 1000.28 | 998.631 | 1.145 | 1.01 | 0.896 | 0.801 | 0.722
m1 = 0.2 | 1008.58 | 1007.58 | 1006.33 | 1004.85 | 1003.19 | 1.145 | 1.01 | 0.896 | 0.801 | 0.723
m1 = 0.3 | 1013.16 | 1012.13 | 1010.84 | 1009.34 | 1007.64 | 1.145 | 1.011 | 0.897 | 0.801 | 0.726
m1 = 0.4 | 1017.86 | 1016.77 | 1015.43 | 1013.89 | 1012.18 | 1.147 | 1.013 | 0.897 | 0.801 | 0.73
m1 = 0.5 | 1022.32 | 1021.2 | 1019.84 | 1018.27 | 1016.52 | 1.152 | 1.027 | 0.899 | 0.802 | 0.73

[Cl-].[Na+] [sodium chloride] + O
[1]
Details | mass density, 288.15 K [kg/m3] | mass density, 293.15 K [kg/m3] | mass density, 298.15 K [kg/m3] | mass density, 303.15 K [kg/m3] | mass density, 308.15 K [kg/m3] | viscosity, 288.15 K [mPa·s] | viscosity, 293.15 K [mPa·s] | viscosity, 298.15 K [mPa·s] | viscosity, 303.15 K [mPa·s] | viscosity, 308.15 K [mPa·s]
m1 = 0.1 | 1003.32 | 1002.36 | 1001.15 | 999.711 | 998.058 | 1.146 | 1.011 | 0.892 | 0.804 | 0.73
m1 = 0.2 | 1007.43 | 1006.42 | 1005.14 | 1003.65 | 1001.98 | 1.149 | 1.016 | 0.901 | 0.812 | 0.738
m1 = 0.3 | 1011.33 | 1010.27 | 1008.96 | 1007.44 | 1005.73 | 1.151 | 1.019 | 0.91 | 0.82 | 0.745
m1 = 0.4 | 1015.65 | 1014.53 | 1013.16 | 1011.6 | 1009.85 | 1.158 | 1.026 | 0.917 | 0.827 | 0.751
m1 = 0.5 | 1019.41 | 1018.24 | – | 1015.24 | 1013.48 | 1.165 | 1.033 | 0.925 | 0.834 | 0.76

O [water]
[2]
Details | viscosity [mPa·s]
288.15 K | 1.145
293.15 K | 1.01
298.15 K | 0.896
303.15 K | 0.801
308.15 K | 0.721
